Assay results: a melting point compilation (Tetko et al.; mined from patent text by program, amines drawn as free bases though some values may be those of a salt)

Row | melting point | SMILES
1 | 147 to 150 °C | CCn1cc(C(=O)NCc2ccc(Cl)cc2)c(=O)c2cc(C#CCOC(=O)c3cccc(CN4CCOCC4)c3)sc21
2 | 206 to 207 °C | O=C(Nc1ccc(Cl)cn1)c1ccccc1O
3 | 183 to 185 °C | O=C(O)c1ccccc1C(=O)NCCc1cccnc1
4 | 350 to 351 °C | Cn1nnnc1-c1cnc2cc(Cl)ccc2c1O
5 | 115 to 116 °C | CCOC(=O)c1ccc(C(=O)/C=C/c2ccc(SC)cc2)cc1
6 | 225 to 227 °C | COc1ccc(S(=O)(=O)Nc2cc(NC(=O)c3ccc(Cl)c(Cl)c3)ccc2OC)cc1
7 | 155 to 156 °C | CN(C)S(=O)(=O)N(C)c1ccc(C(=O)Nc2ccc(Cl)cc2)cc1
8 | 82 to 84 °C | C=C(C)C(=O)OCc1ccc(O)c(C=O)c1
9 | 112 to 113 °C | COc1ccc(C(=O)Nc2cc3c(cc2CCC2CCCCN2C)OCO3)cc1 (stereo not drawn)
10 | 103 to 104 °C | O=C1C(Cc2ccc(Br)cc2)=C(C(F)F)C(=O)c2ccccc21
11 | 123 to 124 °C | CCC(C)(C)NC(=S)Nc1cc(F)cc(Br)c1
12 | 110 to 111 °C | Cc1ccc(C(=O)NCCCSc2ccncc2)cc1
13 | 184 °C | Cc1csc2ccc3[nH]c4c(c3c12)CN(CCCN(C)C)CC4
14 | 107 to 110 °C | C=CCOc1cc(-n2c(OC)nc(C(F)(F)F)cc2=O)c(F)cc1Br
15 | 88 to 90 °C | CCOC(=O)c1oc2cccc(CCO)c2c1C
16 | 87 to 88 °C | CCOC(=O)c1c2ccc(Cl)cc2c(-c2ccccc2)n1CCC(C)(C)CCBr
17 | 63 to 65 °C | COc1ccc2cc(CCl)ccc2c1
18 | 134 to 136 °C | Cc1cc(CO)ccc1NC(=O)CN(C(=O)OC(C)(C)C)c1ccc(F)c(F)c1
19 | 219 to 220 °C | CCCOc1ccccc1-c1nc2nc(NN)ncc2c(=O)[nH]1
20 | 41 to 42 °C | CCOC(=O)c1sc(Cl)nc1-c1cccc(C)c1
21 | 236 to 238 °C | c1csc(-c2n[nH]c3c2sc2ccccc23)c1

Row | melting point | SMILES
22 | 243 to 244 °C | CC(=O)NC1=NN(c2ccc(C(=O)C(F)(F)F)cc2)CC1
23 | 156 to 157 °C | CCOC(=O)c1c(CN(CC)CC)nc2sc3ncccc3c2c1-c1ccc(OC)c(OC)c1
24 | 136 °C | CCOC(=O)c1cccc(NC(=O)NCC(=O)N2[C@@H](C(=O)OCC)CC[C@H]2c2ccccc2)c1 (racemic)
25 | 223 to 226 °C | c1cc(Nc2nnc3c4c(cccc24)-c2ccccc2-3)cc(-n2ccnc2)c1
26 | 158 to 160 °C | C[C@H](O)[C@@H](O)[C@@H](O)C(=O)CO
27 | 169 to 170 °C | COc1ccccc1C1c2cc(NC(=O)CC(C)(C)C)c(C)c(C)c2OC1(C)C (stereo not drawn)
28 | 46 to 48 °C | CN(C)c1cncc(I)n1
29 | 304 to 305 °C | COc1ccc2c(c1)c(-c1cc3c(C#N)ccnc3[nH]1)cn2C
30 | 104 to 105 °C | Cc1ccc(-c2nc(Sc3ccc(Cl)cc3)cc(N3CCN(C)CC3)n2)cc1
31 | 144 °C | Cc1cccc(Nn2cnc(C)c2C)c1
32 | 137 to 142 °C | N#Cc1[nH]c2ccccc2c1-c1ccccc1
33 | 258 to 259 °C | COc1cc2c(Nc3ccc(C)c(O)c3)ncnc2cc1OCc1cccnc1
34 | 95 to 97 °C | CC(C)(C)NS(=O)(=O)c1cccnc1F
35 | 57 to 59 °C | COCCCNc1ccc([N+](=O)[O-])cc1
36 | 259 to 261 °C | O=C(Nc1cc(F)cc(F)c1)c1cc(Br)ccc1O
37 | 155 to 156 °C | CNC(=O)N1CC(Oc2cccc(F)c2)C1
38 | 51 to 52 °C | CCCCCC1CCC(c2ccc(-c3ccc(Br)cc3C(F)(F)F)cc2)CC1 (stereo not drawn)
39 | 162 to 163 °C | COc1ccc2c(c1)NC(=O)C(Cl)CC2 (stereo not drawn)
40 | 155 to 157 °C | CC(C)(C)OC(=O)NC1CN(C(C(=O)OC(c2ccccc2)c2ccccc2)c2ccc(OC(=O)OC(C)(C)C)cc2)C1=O (stereo not drawn)
41 | 192 to 195 °C | CNC(=O)Nc1cc(C(Cl)(Cl)Cl)ccn1

Row | SMILES | melting point
42 | Cc1ccc2c(c1)C1CNCCC1N2 (stereo not drawn) | 73 to 75 °C
43 | ClCC1CN(Cc2ccccc2)CCN1Cc1ccccc1 (stereo not drawn) | 54 to 56 °C
